Values after ≈ are worked out from the molar mass of the structure shown. Like-named read-outs stand apart in the source and are kept apart here.
What was measured:
Type in all cases: cell-based
[1] = test system: Klebsiella pneumoniae ATCC 700603; experiment: in vitro antimicrobial activity, MIC by agar plate incubation (Japan Society for Chemotherapy method); details: ATCC700603, SHV-18, ESBL producing strain, 1000 cfu/spot, sensitive disc medium, read-out: Minimum Inhibitory Concentration (MIC)
Protocol: (§1) Compound (I) of the subject invention has been investigated for in vitro antimicrobial activity thereof.
(§2) (Microbe/Strain Species Nos. 1-4):
(§3) Measurement of Minimum Inhibitory Concentration (MIC: microgram/ml) was conducted according to the standard method of the Japan Society for Chemotherapy, and the amount of bacteria for inoculation was 1000 cfu/spot, and sensitive disc medium was used as the test medium, and conducted using agar plate incubation.
(§4) In the tables, the unit of the values of inhibitory activity is microgram/ml (μg/ml)

[2] = test system: Pseudomonas aeruginosa SR24; experiment: as above; details: no enzyme, Ceftazidime sensitive strain, 1000 cfu/spot, sensitive disc medium, read-out: Minimum Inhibitory Concentration (MIC)
Protocol: as §1, §2, §3, §4

[3] = test system: Acinetobacter baumannii SR24396; experiment: as above; details: 1000 cfu/spot, sensitive disc medium, read-out: Minimum Inhibitory Concentration (MIC)
Protocol: as §1, §2, §3, §4

[4] = test system: Pseudomonas aeruginosa SR27060; experiment: as above; details: IMP-1, MBL producing strain (carbapenem resistant strain), 1000 cfu/spot, sensitive disc medium, read-out: Minimum Inhibitory Concentration (MIC)
Protocol: as §1, §2, §3, §4

[5] = test system: Stenotrohomonas maltophilia SR21970; experiment: in vitro antimicrobial activity, MIC by agar plate incubation (CLSI method, Mueller-Hinton agar); details: L-1, MBL producing strain (carbapenem resistant strain), 10000 cfu/spot, read-out: Minimum Inhibitory Concentration (MIC)
Protocol: as §1
(Microbe/Strain Species Nos. 5):
Measurement of Minimum Inhibitory Concentration (MIC, microgram/ml) was conducted according to the CLSI (Clinical and Laboratory Standards Institute) and the amount of bacteria for inoculation was 10000 cfu/spot, and Mueller-Hinton agar medium was used as the test medium, and conducted using agar plate incubation.
as §4

[6] = SR24396, Acinetobacter baumannii SR24395 (Table 10)

SMILES: CC(C)(O/N=C(\C(=O)N[C@@H]1C(=O)N2C(C(=O)O)=C(C[N+]34CCC(CNC(=O)c5cc(=O)c(O)c[nH]5)(CC3)CC4)CS[C@H]12)c1csc(N)n1)C(=O)[O-] [Compound I-2]
- MIC [1]: 1 µg/mL (≈ 1.34 µM)
- MIC [2]: 0.125 µg/mL (≈ 0.168 µM)
- MIC [3, 6]: 1 µg/mL (≈ 1.34 µM)
- MIC [4]: 1 µg/mL (≈ 1.34 µM)

SMILES: Nc1nc(/C(=N/O[C@@H](CC(=O)O)C(=O)[O-])C(=O)N[C@@H]2C(=O)N3C(C(=O)O)=C(C[N+]45CCC[C@H]4CN(C(=O)c4cc(=O)c(O)c[nH]4)CC5)CS[C@H]23)cs1 (stereo partly shown) [Compound I-11]
- MIC [5]: 1 µg/mL (≈ 1.31 µM)
- MIC [1]: 0.5 µg/mL (≈ 0.657 µM)
- MIC [2]: 0.25 µg/mL (≈ 0.329 µM)
- MIC ([3]; Acinetobacter baumannii SR24396 (Table 11)): 0.25 µg/mL (≈ 0.329 µM)
- MIC [4]: 1 µg/mL (≈ 1.31 µM)

SMILES: CC(C)(O/N=C(\C(=O)N[C@@H]1C(=O)N2C(C(=O)O)=C(C[N+]3(CCNC(=O)c4cc(=O)c(O)cn4O)CCCC3)CS[C@H]12)c1csc(N)n1)C(=O)[O-] [Compound I-6]
- MIC [5]: 1 µg/mL (≈ 1.36 µM)
- MIC [1]: 0.25 µg/mL (≈ 0.34 µM)
- MIC [2]: 0.063 µg/mL (≈ 0.0857 µM)
- MIC [3, 6]: 0.25 µg/mL (≈ 0.34 µM)
- MIC [4]: 0.25 µg/mL (≈ 0.34 µM)

SMILES: CC(C)(O/N=C(\C(=O)N[C@@H]1C(=O)N2C(C(=O)[O-])=C(C[N+]3(CCNC(=O)c4cc(=O)c(O)c[nH]4)CCCC3)CS[C@H]12)c1csc(N)n1)C(=O)[O][Na] [Compound I-4]
- MIC [5]: 1 µg/mL
- MIC [1]: 0.25 µg/mL
- MIC [2]: 0.063 µg/mL
- MIC [3, 6]: 0.5 µg/mL
- MIC [4]: 0.25 µg/mL

From patent US8883773B2, “Cephem compound having pseudo-catechol group” (Shionogi & Co., Ltd., priority 2010, dated 2014)
